Laboratory results taken from the supplement of paper PMC10307832.

Key:
Experiment in all cases: relative viability (nuclei count vs DMSO), 5 days (fraction); higher = more cells survive
CX-5461 + Foretinib = compound: Cc1cnc(CNC(=O)c2c(=O)c3ccc(N4CCCN(C)CC4)nc3n3c2sc2ccccc23)cn1 [CX-5461] + COc1cc2c(Oc3ccc(NC(=O)C4(C(=O)Nc5ccc(F)cc5)CC4)cc3F)ccnc2cc1OCCCN1CCOCC1 [Foretinib] (partner 0.25 µM)
Outline: (§1)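 Relative viability equals treated-well nuclei counts divided by vehicle-well nuclei counts. Counts came from 4× images of lung cancer cell lines grown in 1536-well plates for 5 days after pin-tool dosing on the day after seeding. Dosing used one drug alone or a fixed anchor-drug dose plus five library-drug doses (not always all listed) in √10 steps, and values are medians of duplicate plates.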

CX-5461 + Crizotinib = compound: Cc1cnc(CNC(=O)c2c(=O)c3ccc(N4CCCN(C)CC4)nc3n3c2sc2ccccc23)cn1 [CX-5461] + C[C@@H](Oc1cc(-c2cnn(C3CCNCC3)c2)cnc1N)c1c(Cl)ccc(F)c1Cl [Crizotinib] (partner 1 µM)
Outline: as §1

CX-5461 + Linsitinib = compound: Cc1cnc(CNC(=O)c2c(=O)c3ccc(N4CCCN(C)CC4)nc3n3c2sc2ccccc23)cn1 [CX-5461] + C[C@]1(O)C[C@@H](c2nc(-c3ccc4ccc(-c5ccccc5)nc4c3)c3c(N)nccn32)C1 [Linsitinib] (partner 1 µM)
Outline: as §1

IMD-0354 + Pictilisib = compound: O=C(Nc1cc(C(F)(F)F)cc(C(F)(F)F)c1)c1cc(Cl)ccc1O [IMD-0354] + CS(=O)(=O)N1CCN(Cc2cc3nc(-c4cccc5[nH]ncc45)nc(N4CCOCC4)c3s2)CC1 [Pictilisib] (partner 1 µM)
Outline: as §1

Row | Cell Line | relative viability (CX-5461 + Foretinib; first compound 0.01 µM) | relative viability (CX-5461 + Foretinib; first compound 0.03162 µM) | relative viability (CX-5461 + Foretinib; first compound 0.1 µM) | relative viability (CX-5461 + Foretinib; first compound 0.3162 µM) | relative viability (CX-5461 + Foretinib; first compound 1 µM) | relative viability (CX-5461 + Crizotinib; first compound 0.01 µM) | relative viability (CX-5461 + Crizotinib; first compound 0.03162 µM) | relative viability (CX-5461 + Crizotinib; first compound 0.1 µM) | relative viability (CX-5461 + Crizotinib; first compound 0.3162 µM) | relative viability (CX-5461 + Crizotinib; first compound 1 µM) | relative viability (CX-5461 + Linsitinib; first compound 0.01 µM) | relative viability (CX-5461 + Linsitinib; first compound 0.03162 µM) | relative viability (CX-5461 + Linsitinib; first compound 0.1 µM) | relative viability (CX-5461 + Linsitinib; first compound 0.3162 µM) | relative viability (CX-5461 + Linsitinib; first compound 1 µM) | relative viability (IMD-0354 + Pictilisib; first compound 0.04 µM) | relative viability (IMD-0354 + Pictilisib; first compound 0.1265 µM) | relative viability (IMD-0354 + Pictilisib; first compound 0.4 µM) | relative viability (IMD-0354 + Pictilisib; first compound 1.265 µM) | relative viability (IMD-0354 + Pictilisib; first compound 4 µM)
1 | HCC-15 | 1.11 | 1.02 | 0.978 | 0.895 | 0.591 | 0.884 | 0.888 | 0.765 | 0.766 | 0.691 | 0.906 | 0.904 | 0.933 | 0.909 | 0.834 | 0.632 | 0.696 | 0.437 | 0.14 | 0.133
2 | A-427 | 1.12 | 1.2 | 1.13 |  | 1.04 | 1.04 | 1.08 | 1 |  | 0.888 | 1.19 | 1.11 | 1.15 |  | 1.08 | 0.749 | 0.683 | 0.674 | 0.164 | 0.116
3 | NCI-H2228 | 0.691 | 1.03 | 0.763 | 0.747 | 0.13 | 0.445 | 0.602 | 0.511 | 0.482 | 0.204 | 0.736 | 0.975 | 0.416 | 0.718 | 0.282 | 0.388 | 0.367 | 0.217 | 0.365 | 0.247
4 | NCI-H1734 | 0.88 | 0.878 | 0.941 | 0.634 | 0.758 | 0.666 | 0.82 | 0.742 | 0.536 | 0.623 | 1.01 | 0.97 | 0.901 | 0.772 | 0.868 | 0.495 | 0.51 | 0.339 | 0.209 | 0.143
5 | SK-LU-1 | 0.818 | 0.857 | 0.736 |  | 0.326 | 0.95 | 1.01 | 0.837 | 0.891 | 0.51 | 1.31 | 1.11 | 0.945 | 0.921 | 0.497 | 0.681 | 0.583 | 0.379 | 0.33 | 0.233
6 | PC-14 | 1 | 1.04 | 1.04 | 0.962 | 0.887 | 1.02 | 1.05 | 0.957 | 0.863 | 0.91 | 0.954 | 0.992 | 1.03 | 0.987 | 0.878 | 1.05 | 0.713 |  | 0.409 | 0.132
7 | NCI-H1915 | 1.14 | 1.07 | 1.09 | 1.08 | 1.05 | 0.937 | 0.934 | 0.892 | 0.888 | 0.902 | 1.1 | 1.13 | 1.12 | 1.12 | 1.16 | 0.68 | 1.02 | 0.671 | 0.33 | 0.199
8 | NCI-H1666 | 1.02 | 0.969 | 0.962 | 0.916 | 0.692 | 1.03 | 0.838 |  | 1 | 0.618 | 0.787 | 0.982 |  | 0.82 | 0.459 | 0.308 | 0.434 | 0.295 | 0.176 | 0.201
9 | HCC-366 | 1.03 | 0.913 | 0.924 | 0.756 | 0.931 | 0.693 | 0.82 | 0.573 | 0.252 | 0.48 | 0.574 | 0.738 | 0.581 | 0.573 | 0.615 | 0.16 | 0.193 | 0.168 | 0.148 | 0.0681
10 | LK-2 | 1.17 | 0.942 | 1.26 |  | 1.24 |  | 0.188 | 0.214 |  | 0.239 | 0.363 | 0.715 | 0.598 |  | 0.515 | 0.425 | 0.504 | 0.408 | 0.381 | 0.246
11 | NCI-H661 | 0.928 | 0.98 | 0.985 | 0.497 | 0.673 | 1.01 | 1.08 | 1.02 | 0.615 | 0.944 | 0.593 | 0.721 | 0.87 |  | 0.433 | 0.416 | 0.418 | 0.34 | 0.264 | 0.252
12 | PC-3 [JPC-3] | 1.07 | 1.06 | 0.984 | 0.986 | 1.01 | 0.987 | 0.996 | 0.969 | 0.952 | 0.926 | 0.937 | 0.885 | 0.933 | 0.936 | 0.918 | 0.779 | 0.701 | 0.588 | 0.376 | 0.229
13 | NCI-H1623 | 0.971 | 0.871 | 0.809 | 0.934 | 0.723 |  |  |  |  |  |  |  |  |  |  |  |  |  |  | 
14 | Calu-6 | 0.837 | 0.925 | 0.807 | 0.844 | 0.698 | 0.861 | 0.809 | 0.722 | 0.723 | 0.289 | 1.02 | 0.952 | 0.986 | 0.827 | 0.51 | 0.988 | 0.87 | 0.379 | 0.121 | 0.0686
